What was measured:
Wistar rats [1] = experiment: ABR threshold shifts, noise induced hearing loss (NIHL); type: in vivo, rat
Experimental: Male Wistar rats (150-250 gm) were used for this study under an animal care protocol approved by the Laboratory and Animal Care and Use Committee (SIU School of Medicine). Pre-treatment ABRs were performed. Animals were then treated according to the experimental paradigm. Prevention strategy: consisted of administration of ETA either intra-tympanic ally (IT) (250 μg/50 μl) or subcutaneously (sc) (3 mg/kg) or PBS (IT-50 μl or sc-1 ml) either 3 days or 7 days prior to noise exposure (NE).
Animals were exposed to noise (NE), and then provided ETA treatments either IT or SC at either 2 h or 24 h post noise injury. Post treatment ABR thresholds were determined at 21 days post noise exposure and cochleae were excised for morphological, molecular and biochemical studies. Cochleae used for RNA preparations were flushed immediately with RNA later and kept in RNA later for 24 h at 4° C. Those used for immunohistochemical studies were perfused and fixed with 4% paraformaldehyde, while those used for Scanning electron microscopy (SEM) were perfused and fixed with 2.5% glutaraldehyde. Cochleae used for whole mounts were decalcified for 7-10 days in 100 mM EDTA at room temperature.
Male Wistar rats were exposed to octave band noise at 122 dB centered at 16 kHz for 1 h under isofluorane anesthesia, with the 3 inch silicon tubes attached to the high frequency transducer resting in the middle ear cavity. This exposure typically results in a 30-50 dB temporary threshold shift (measured as an immediate pre-to-post noise exposure shift in ABR thresholds) across all frequencies; with slightly more elevation at those frequencies around 16 kHz and 20-40 dB permanent threshold shift measured at 21 days post noise exposure at all frequencies. Acoustic stimuli are calibrated using a cloth model rat and a Bruel & Kjaer Pulse System with a ½ inch free-field microphone (B&K model 4191). Baseline noise levels in the test chamber (with background test noise turned off) are typically measured below 20 dB SPL in the 4-40 kHz range.
Pre-treatment ABR thresholds were determined using the high frequency Intelligent Hearing Systems (IHS) on naive rats prior to any treatment or noise exposure for each ear. Animals were tested with a stimulus intensity series that was initiated at 0 dB sound pressure level (SPL) and reached a maximum at 90 dB SPL. The stimulus intensity levels were increased in 10 dB increments, and the evoked ABR waveforms were observed on a video monitor. The auditory stimuli included tone bursts at 8, 16, and 32 kHz with a 10 msec plateau and a 1 msec rise/fall time presented at a rate of 5/sec. Threshold was defined as the lowest intensity capable of evoking a reproducible, visually detectable response with two distinct waveforms and minimum amplitude of 0.5 μV.
Preconditioning of the TRPV1 receptor in the rat cochlea by oral administration of capsaicin is shown here to protect from NIHL. Male Wistar rats weighing 200-250 gms were used. ABRs from naïve rats were recorded. Rats were then treated with oral phosphate buffered saline (PBS—1 ml) or capsaicin (1 ml of 20 mg/ml) starting 24 hrs prior to NE, on the day of NE, and 24 hrs post NE. The final ABRs were recorded 21 days post NE. Cochleae were collected for various biochemical tests and immunohistochemistry. At least 6 animals were used per treatment group. NE caused an ABR threshold shift of 21.6±1.7, 35.5±1.9 and 43.9±2.3 dB threshold shift at 8, 16 and 32 kHz respectively. Oral capsaicin treatment completely protects from NIHL (3.9±1.4, 6.1±1.8 and 8.9±2.1 dB threshold shift at 8, 16 and 32 kHz respectively), there is no significant change in ABR threshold shift compared to control. […] Statistical significance was calculated using one way ANOVA with Tukey's post-hoc analyses, p<0.05 (FIG. 16.A.).
ABR measurements were conducted in naïve male Wistar rats. […]

[2] = 25 mg ETA twice a week for 24 weeks; Matteson et al.; cited from earlier work
Wistar rats [3] = experiment: Restoration of hearing after permanent threshold shifts (Example 10B); type: in vivo, rat; details: treatment after PTS at 4 weeks; oral capsaicin 5 mg/kg 3 days, ETA 1 mg/kg s.c. day 2, three weeks
Experimental: FIG. 23A is a schematic showing the experimental paradigm used in Example 10B. Pre-treatment baseline ABRs were performed in naïve male Wistar rats. The rats were then used either as sham controls (no noise exposure) or exposed-noise (122 dB, OBN centered at 16 kHz for 1 hour). Post noise exposure ABRs were repeated at 4 weeks to establish permanent threshold shifts (PTS). […] Final ABR threshold values were evaluated at week 9 post noise exposure.
Values shown in FIGS. 23A-23C and otherwise provided with respect to this Example 10B are expressed as the mean±SEM. Statistical significance was analyzed using the ANOVA and Tukey's host hoc analysis.

rat cochlea = experiment: Cochlear gene expression by qPCR after noise exposure; type: in vivo
Experimental: Cochleae were pared down to the bone, crushed in liquid nitrogen followed by extraction in 500 μl of TRI reagent. 0.1 ml of chloroform was added, and the tube was shaken vigorously for 15 seconds and centrifuged at 12,000×g for 15 min. RNA was extracted by washing the pellet with 0.5 ml ice-cold isopropanol followed by cold 75% treated ethanol. The ethanol was removed and the tube was air dried briefly. The RNA pellet was resuspended in nuclease free water and RNA levels were determined using optical density readings corresponding to wavelengths of 260 nm, 280 and 320 nm using a spectrophotometer (Eppendorf BioPhotometer, Hamburg, Germany).
500 ng of total RNA was converted to cDNA using iScript cDNA Synthesis Kit (Bio-Rad, Hercules, CA). The reaction mixture was set up as follows: Ing of total RNA, 4 μl of iScript reaction mix, 1 μl of iScript reverse transcriptase, nuclease free water to bring the total volume to 20 μl. The reaction mix was incubated at 25° C. for 5 min, 42° C. for 30 minutes and 85° C. for 5 minutes. This cDNA reaction mix was used for real time PCR, as described previously [Mukherjea et al., 2006]. Gene specific primer pairs were used for the various reactions and mRNA expression levels were normalized to the levels of GAPDH. The primer sets were purchased from Sigma Genosys (St. Louis, MO), and were as follows: […]

[4] = TT ETA rescue at 24 hours post NE
[5] = TT ETA rescue within 2 hours post NE
[6] = TT-ETA 250 μg/50 μl, 3 day pre-treatment, 21 days post NE
[7] = s.c. ETA rescue at 24 hours post NE
[8] = s.c. ETA rescue within 2 hours post NE
[9] = subcutaneous ETA 3 mg/kg, 3 day pre-treatment, 21 days post NE

## etanercept
Wistar rats [1]; ETA pre-treatment sc or TT, 3 or 7 days prior to NE (FIG. 17.A)
  increase in hearing threshold (hearing loss): 5-10 dB
Wistar rats [1]; TT ETA at 2 h post NE (FIG. 17.B)
  threshold shifts: 20-37.5 dB
Wistar rats [1]; [4]
  ABR threshold shift at 8 kHz: 22.5±2.9 dB
  ABR threshold shift at 16 kHz: 31.25±3.2 dB
  ABR threshold shift at 32 kHz: 37.5±3.7 dB
Wistar rats [1]; [5]
  ABR threshold shift at 8 kHz: 20±2.6 dB
  ABR threshold shift at 16 kHz: 30±2.7 dB
  ABR threshold shift at 32 kHz: 33.75±2.7 dB
Wistar rats [1]; TT ETA, 7 day pretreatment
  ABR threshold shift at 8 kHz: 16.25±3.25 dB
  ABR threshold shift at 16 kHz: 16.25±3.75 dB
  ABR threshold shift at 32 kHz: 16.25±4.6 dB
Wistar rats [1]; [6]
  ABR threshold shift at 8 kHz: 1.25±1.25 dB
  ABR threshold shift at 16 kHz: 0 dB
  ABR threshold shift at 32 kHz: 3.75±1.8 dB
Wistar rats [1]; capsaicin 5 mg/kg oral, ETA 1 mg/kg, noise exposure (FIG. 18.B)
  Wave 1 amplitude versus sound intensity: partial restoration
Wistar rats [1]; s.c ETA, 7 day pretreatment
  ABR threshold shift at 8 kHz: 12.5±3.6 dB
  ABR threshold shift at 16 kHz: 15±5 dB
  ABR threshold shift at 32 kHz: 16.25±5.3 dB
Wistar rats [1]; [7]
  ABR threshold shift at 8 kHz: 21.25±3.9 dB
  ABR threshold shift at 16 kHz: 22.5±4.9 dB
  ABR threshold shift at 32 kHz: 26.25±5.6 dB
Wistar rats [1]; [8]
  ABR threshold shift at 8 kHz: 9.16±2.6 dB
  ABR threshold shift at 16 kHz: 15.8±4.5 dB
  ABR threshold shift at 32 kHz: 20.8±6.0 dB
Wistar rats [1]; [9]
  ABR threshold shift at 8 kHz: 4±1.6 dB
  ABR threshold shift at 16 kHz: 8±2.5 dB
  ABR threshold shift at 32 kHz: 11±18 dB
Wistar rats [1]; subcutaneous ETA at 2 h post NE (FIG. 17.B)
  threshold shift: 10-25 dB
[2]
  side effects: no side effects
Wistar rats [3]
  average hearing threshold shifts at 9 weeks: 25-38 dB
Rat cochlea; ETA rescue by TT injection at 24 hours
  TRPV1, TNF-α and COX2 expression: unable to decrease the TRPV1, TNF-α and COX2 to basal levels
Rat cochlea; pretreatment with ETA
  NE induced up regulation of TRPV1, TNF-α, NOX3, COX2, iNOS and Bax: prevents the NE induced up regulation
